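Assay format: 96-well plates, 48-hour exposure. GI50 is the concentration that inhibits growth by half. TGI: concentration producing complete growth inhibition.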
Assays:
Experiment in all cases: NCI-60 cell line screen, 48 h
SK-MEL-28 melanoma = tested on: SK-MEL-28 melanoma
NCI-H226 lung = tested on: NCI-H226 lung
DU-145 prostate = tested on: DU-145 prostate
CCRF-CEM leukemia = tested on: CCRF-CEM leukemia
ACHN renal = tested on: ACHN renal
SNB-19 CNS = tested on: SNB-19 CNS
HOP-92 NSCLC = tested on: HOP-92 NSCLC
NCI/ADR-RES ovarian = tested on: NCI/ADR-RES ovarian
HOP-62 NSCLC = tested on: HOP-62 NSCLC
HCT-15 colon = tested on: HCT-15 colon
UACC-62 melanoma = tested on: UACC-62 melanoma
RXF 393 renal = tested on: RXF 393 renal
A549 NSCLC = tested on: A549 NSCLC
A498 renal = tested on: A498 renal
MDA-MB-231 breast = tested on: MDA-MB-231 breast
MCF7 breast = tested on: MCF7 breast
LOX IMVI melanoma = tested on: LOX IMVI melanoma
MOLT-4 leukemia = tested on: MOLT-4 leukemia
UO-31 renal = tested on: UO-31 renal
M14 melanoma = tested on: M14 melanoma
HCC-2998 colon = tested on: HCC-2998 colon
UACC-257 melanoma = tested on: UACC-257 melanoma
OVCAR-4 ovarian = tested on: OVCAR-4 ovarian
BT-549 breast = tested on: BT-549 breast
TK-10 renal = tested on: TK-10 renal
OVCAR-8 ovarian = tested on: OVCAR-8 ovarian
KM12 colon = tested on: KM12 colon
COLO 205 colon = tested on: COLO 205 colon

Structure (SMILES): Cc1cc(S(=O)(=O)Nc2nc3cscc3c(=O)n2Cc2ccccc2)c(S)cc1Cl
- GI50 (SK-MEL-28 melanoma): 74.3 µM
- TGI (SK-MEL-28 melanoma): > 100 µM
- GI50 (NCI-H226 lung): 60.1 µM
- TGI (NCI-H226 lung): > 100 µM
- GI50 (DU-145 prostate): 41 µM
- TGI (DU-145 prostate): > 100 µM
- GI50 (CCRF-CEM leukemia): 14 µM
- TGI (CCRF-CEM leukemia): > 100 µM
- GI50 (ACHN renal): 52.6 µM
- TGI (ACHN renal): > 100 µM
- GI50 (SNB-19 CNS): 29.1 µM
- TGI (SNB-19 CNS): > 100 µM
- GI50 (HOP-92 NSCLC): > 100 µM
- TGI (HOP-92 NSCLC): > 100 µM
- GI50 (NCI/ADR-RES ovarian): 53.4 µM
- TGI (NCI/ADR-RES ovarian): > 100 µM
- GI50 (HOP-62 NSCLC): 16.5 µM
- TGI (HOP-62 NSCLC): 39.3 µM
- GI50 (HCT-15 colon): 56.8 µM
- TGI (HCT-15 colon): > 100 µM
- GI50 (UACC-62 melanoma): 50.5 µM
- TGI (UACC-62 melanoma): > 100 µM
- GI50 (RXF 393 renal): 36.2 µM
- TGI (RXF 393 renal): > 100 µM
- GI50 (A549 NSCLC): 42.4 µM
- TGI (A549 NSCLC): > 100 µM
- GI50 (A498 renal): 46.6 µM
- TGI (A498 renal): > 100 µM
- GI50 (MDA-MB-231 breast): 34 µM
- TGI (MDA-MB-231 breast): > 100 µM
- GI50 (MCF7 breast): 39.1 µM
- TGI (MCF7 breast): > 100 µM
- GI50 (LOX IMVI melanoma): 23.2 µM
- TGI (LOX IMVI melanoma): 51.6 µM
- GI50 (MOLT-4 leukemia): 3.94 µM
- TGI (MOLT-4 leukemia): 32.5 µM
- GI50 (UO-31 renal): 51.8 µM
- TGI (UO-31 renal): > 100 µM
- GI50 (M14 melanoma): 61.3 µM
- TGI (M14 melanoma): > 100 µM
- GI50 (HCC-2998 colon): 18.9 µM
- TGI (HCC-2998 colon): 68.5 µM
- GI50 (UACC-257 melanoma): > 100 µM
- TGI (UACC-257 melanoma): > 100 µM
- GI50 (OVCAR-4 ovarian): > 100 µM
- TGI (OVCAR-4 ovarian): > 100 µM
- GI50 (BT-549 breast): 81.1 µM
- TGI (BT-549 breast): > 100 µM
- GI50 (TK-10 renal): 35 µM
- TGI (TK-10 renal): > 100 µM
- GI50 (OVCAR-8 ovarian): 55.7 µM
- TGI (OVCAR-8 ovarian): > 100 µM
- GI50 (KM12 colon): 21.9 µM
- TGI (KM12 colon): 74.7 µM
- GI50 (COLO 205 colon): > 100 µM

Source: PubChem BioAssay (NCI)
